Series [1] can be described thus: UV/Vis spectral properties (Cary-50 spectrophotometer). It is filed as physicochemical. Conditions: for UVA and UVB absorption properties compared to oxybenzone / absorption spectra, regions encompassed: acetonitrile; for UVA and UVB absorption properties compared to oxybenzone: 5 mM or 0.05 mM, FIG. 1; for absorption spectra, regions encompassed: 5 mM (N-Boc-Imine-6 also 0.05 mM), compared to oxybenzone, FIG. 3. As for the experimental part:
Imine-1, Imine-2, and Imine-3 were synthesized, purified, and isolated (see above). All three compounds were separately dissolved in acetonitrile to a final concentration of 5 mM (FIG. 1) or 0.05 mM (FIG. 1, inset) and analyzed by UV/Vis (Cary-50 Spectrophotomer). The spectral properties were compared to oxybenzone in acetonitrile.
Carbamate-1, first described in U.S. Pat. No. 5,490,980A, was synthesized, purified, and isolated (see above). Carbamate-1 was dissolved in acetonitrile to a final concentration of 0.05 mM and analyzed by UV/Vis (Cary-50 Spectrophotomer). The spectral properties were compared to oxybenzone in acetonitrile at a final concentration of 0.05 mM.
Imine-4, Imine-5, and N-Boc-Imine-6 were synthesized, purified, and isolated (see above). All three compounds were separately dissolved in acetonitrile to a final concentration of 5 mM (FIG. 3) and analyzed by UV/Vis (Cary-50 Spectrophotomer). N-Boc-Imine-6 was diluted in acetonitrile to a final concentration of 0.05 mM (FIG. 3, inset) and analyzed by UV/Vis. […] Spectral properties were compared to oxybenzone in acetonitrile at the same concentration.
To understand the solution stability of the Boc-protected imines in protic solvent, N-Boc-Imine-6 was prepared in ethanol in the presence of catalytic glacial acetic acid. Briefly, to a solution of oxybenzone (0.10 g, 0.438 mmol, 1 eq) and N-Boc-1,6-hexanediamine (0.094 g, 0.43 mmol, 1 eq) in ethanol (0.3 mL) was added catalytic glacial acetic acid (1 μL). The reaction mixture was agitated at 900 rpm at 70° C. for 16 hr and monitored by LCMS. […] The reaction was then diluted in ethanol to final concentration of 0.04 mM and analyzed by UV/Vis spectroscopy.
N-Boc-Imine-8 and Imine-8 was synthesized, purified, and isolated (see above). N-Boc-Imine-8 and Imine-8 were dissolved in ethanol to a final concentration of 0.032 mM and 8 mM, respectively (FIG. 6) and analyzed by UV/Vis. (Cary-50 Spectrophotomer). Spectral properties were compared to sulisobenzone in ethanol at similar concentration.
Imine-10 was first dissolved in methyl tert-butyl ether and then diluted in ethanol to a final concentration of 5 mM and 0.04 mM (FIG. 7) and analyzed by UV/Vis. (Cary-50 Spectrophotomer). Spectral properties were compared to oxybenzone at similar concentration.

The nature of series [2]: Solution stability of Boc-protected imine in protic solvent (ethanol). Conditions: 70° C., catalytic glacial acetic acid, LCMS and UV/Vis. It is filed as physicochemical. The method, then:
To understand the solution stability of the Boc-protected imines in protic solvent, N-Boc-Imine-6 was prepared in ethanol in the presence of catalytic glacial acetic acid. Briefly, to a solution of oxybenzone (0.10 g, 0.438 mmol, 1 eq) and N-Boc-1,6-hexanediamine (0.094 g, 0.43 mmol, 1 eq) in ethanol (0.3 mL) was added catalytic glacial acetic acid (1 μL). The reaction mixture was agitated at 900 rpm at 70° C. for 16 hr and monitored by LCMS. Full reaction of the starting material to a single product peak was observed by LCMS indicating completion. The reaction was then diluted in ethanol to final concentration of 0.04 mM and analyzed by UV/Vis spectroscopy. […] Additionally, the Boc-protecting group remained intact throughout the reaction and UV/Vis analysis.

SMILES strings stand for the structures.

The record followed here is patent publication US20220160601A1, “Sunscreen Compositions” (Curie Co. Inc., priority 2020, published 2022).

With `COc1ccc(/C(=N/Cc2ccccc2)c2ccccc2)c(O)c1` [Imine-1], the “UVA and UVB absorption properties compared to oxybenzone” value in series [1] was “improved both UVA-1, UVA-2, and UVB absorption properties”.

For the compound `COc1ccc(/C(=N/c2ccccc2)c2ccccc2)c(O)c1` [Imine-2], the “UVA and UVB absorption properties compared to oxybenzone” value in series [1] is “improved both UVA-1, UVA-2, and UVB absorption properties”.

Turning to `COc1ccc(/C(=N/O)c2ccccc2)c(O)c1` [Imine-3], the “UVA and UVB absorption properties compared to oxybenzone” value in series [1] was “loss in the UVA blocking and reduction in UVB blocking”. As for `COc1ccc(/C(=N/C(CCC(N)=O)C(=O)O)c2ccccc2)c(O)c1` (stereo not drawn) [Imine-5], the “absorption spectra, regions encompassed” value in series [1] was “encompassed the UVA-1, UVA-2, and UVB regions as well as the visible region of the spectrum (greater than 400 nm)”. For `COc1cc(O)c(/C(=N\CCCCCCN)c2ccccc2)cc1S(=O)(=O)O` [Imine-8], the “UVA and UVB absorption properties compared to sulisobenzone” value in series [1] (ethanol, N-Boc-Imine-8 0.032 mM, Imine-8 8 mM, FIG. 6) is “retained absorbance in the UVB region and extended absorbance into the UVA region”. In the case of `CCCCCCOC(=O)c1ccccc1/C(=N/CCCCCCN)c1cccc(N(CC)CC)c1O` [Imine-9], the “shift of the absorbance spectra” value in series [1] (data not shown) was “red shift of the absorbance spectra, which extends to the visible region”. Consider `COc1ccc(/C(=N/CCCCCCNC(=O)OC(C)(C)C)c2ccccc2)c(O)c1` [N-Boc-Imine-6], for which the “solution stability without reversion to the starting ketone and amine” value in series [2] is “stable over 24 hours”. Further, in series [1], the “absorption spectra, regions encompassed” value was “encompassed the UVA-1, UVA-2, and UVB regions as well as the visible region of the spectrum (greater than 400 nm)”. Besides, the “absorption, regions encompassed” value in series [1] (ethanol, 0.04 mM, FIG. 4) was “encompasses the UVA and UVB regions as well as the visible region of the spectrum (greater than 400 nm)”.
